We go through 16 molecules from PubChem BioAssay (NCI).

Structures are written as SMILES.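 Protocol summary: plate cells (96-well), add compound at 5 concentrations, incubate 48 h, interpolate endpoints linearly. At the GI50, growth is halved. At the TGI there is no net growth.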

Test systems include A498 renal; ACHN renal; CAKI-1 renal; NCI-H460 lung; NCI-H522 lung; OVCAR-3 ovarian; RPMI-8226 leukemia; SF-268 CNS; SNB-19 CNS; SR leukemia; TK-10 renal.
Common to all, as to assay: NCI anticancer screen, dose series, 48 h

As for `CCOC(=O)c1c(CN2CCCC2)n(-c2ccccc2)c2cc(Br)c(OC)cc12`, the TGI is 19.5 µM with A498 renal; 35.3 µM with ACHN renal; greater than 100 µM in the test with CAKI-1 renal; 35.3 µM with NCI-H460 lung; 31.6 µM in the test on NCI-H522 lung; 61.2 µM in the test with OVCAR-3 ovarian. The TGI is 34 µM in the test on RPMI-8226 leukemia; greater than 100 µM in the test on SF-268 CNS; greater than 100 µM in the test on SNB-19 CNS; 25 µM with SR leukemia; 32.5 µM in the test on TK-10 renal.

For the molecule `Nc1nc(=O)n(CC(O)CO)s1` (centres undefined), the TGI in the test with A498 renal, in the test with ACHN renal, in the test on NCI-H460 lung, in the test on OVCAR-3 ovarian, in the test with RPMI-8226 leukemia and with SF-268 CNS was greater than 100 µM each time. For the same molecule, the TGI with SNB-19 CNS, in the test on SR leukemia and in the test with TK-10 renal was greater than 100 µM each time.

With `CNC(=O)Nc1ccccc1`, the TGI in the test on A498 renal, with ACHN renal, in the test on CAKI-1 renal, in the test with NCI-H460 lung, in the test with NCI-H522 lung and with OVCAR-3 ovarian was greater than 100 µM in each case. For the same molecule, the TGI in the test on RPMI-8226 leukemia, in the test with SF-268 CNS, with SNB-19 CNS, in the test with SR leukemia and in the test on TK-10 renal was greater than 100 µM each time.

For the molecule `COc1cc2c(cc1OCCCN1CCN(c3ncnc4ccccc34)CC1)N=CC1CCCN1C2=O` (centres undefined), the TGI came to 0.0164 µM with A498 renal; 0.564 µM in the test with ACHN renal; 0.0574 µM in the test on CAKI-1 renal; 0.298 µM with NCI-H460 lung; 0.0285 µM in the test on NCI-H522 lung; 0.0595 µM with OVCAR-3 ovarian. Also, the TGI with RPMI-8226 leukemia was found to be 0.0353 µM; with SF-268 CNS, 0.625 µM; in the test with SNB-19 CNS, 11.2 µM; with SR leukemia, 0.0968 µM; with TK-10 renal, 1.08 µM. Moreover, the GI50 in the test on ACHN renal was 0.0426 µM; in the test with CAKI-1 renal, 0.0191 µM; in the test with NCI-H460 lung it was 0.0282 µM; in the test on OVCAR-3 ovarian, 0.0269 µM; in the test with RPMI-8226 leukemia, less than 0.0119 µM; in the test with SF-268 CNS, 0.0339 µM. The GI50 is 0.041 µM in the test with SNB-19 CNS, less than 0.0149 µM with SR leukemia and 0.0293 µM with TK-10 renal.

As to `O=c1/c(=C/c2ccc([N+](=O)[O-])o2)sc2n1[C@@H](c1ccc3c(c1)OCO3)C=C(c1cc(F)c(Cl)cc1Cl)N=2`, the TGI in the test on A498 renal was greater than 100 µM; in the test with ACHN renal it was 33.2 µM; in the test with CAKI-1 renal it was 33.6 µM; in the test with NCI-H460 lung, 49.8 µM; with NCI-H522 lung it was 65.6 µM; in the test on OVCAR-3 ovarian, 35.3 µM. The TGI with RPMI-8226 leukemia is greater than 100 µM; in the test on SF-268 CNS it was greater than 100 µM; in the test with SNB-19 CNS, 60.3 µM; with SR leukemia it was greater than 100 µM; in the test with TK-10 renal, 47.8 µM.

On to `N#C[S-].[Ce+3].c1cnc2c(c1)ccc1cccnc12.c1cnc2c(c1)ccc1cccnc12.c1cnc2c(c1)ccc1cccnc12`, for which the TGI with A498 renal is 14.5 µM; with ACHN renal, 11.7 µM; in the test with CAKI-1 renal, 14.3 µM; with NCI-H522 lung, 21.1 µM; with OVCAR-3 ovarian it was 14.9 µM; in the test with RPMI-8226 leukemia it was greater than 100 µM. Besides, the TGI in the test with SNB-19 CNS is 22.5 µM; in the test on SR leukemia, greater than 100 µM; in the test on TK-10 renal, 29.9 µM.

Turning to `O=C(NNC(=O)c1nsc2ccccc12)c1ccc(Cl)cc1`, the TGI is greater than 100 µM in the test on ACHN renal; greater than 100 µM with NCI-H460 lung; 36.6 µM in the test with OVCAR-3 ovarian; 50.2 µM in the test with RPMI-8226 leukemia; 41.3 µM in the test with SF-268 CNS; 42.3 µM in the test on SNB-19 CNS. Besides, the results for the TGI with SR leukemia and in the test on TK-10 renal were 75.5 µM and 48.9 µM, respectively.

With `NC(CC(=O)O)(Cc1ccccc1)C(=O)O` (centres undefined), the TGI in the test on A498 renal, in the test on ACHN renal, in the test with CAKI-1 renal, with NCI-H460 lung, with NCI-H522 lung and in the test with OVCAR-3 ovarian was greater than 100 µM each time. Further, the TGI in the test with RPMI-8226 leukemia, in the test with SNB-19 CNS, with SR leukemia and in the test on TK-10 renal was greater than 100 µM throughout.

Turning to `C[N+](C)(CCO)CCN1c2ccccc2Sc2ccccc21`, the TGI in the test with A498 renal, in the test with ACHN renal, in the test on CAKI-1 renal, in the test with NCI-H460 lung, in the test with NCI-H522 lung and in the test with OVCAR-3 ovarian was greater than 10 µM each time. Besides, the TGI in the test on RPMI-8226 leukemia, in the test with SF-268 CNS, in the test with SNB-19 CNS, in the test with SR leukemia and in the test with TK-10 renal was greater than 10 µM each time.

`Fc1c(F)c(C(F)(F)F)c(F)c(F)c1N/N=C/c1cn(Cc2ccccc2)c2ccccc12`: the TGI with A498 renal came out at 88.6 µM; in the test with ACHN renal it was 81.7 µM; in the test with CAKI-1 renal it was 54.3 µM; in the test on NCI-H460 lung it was 27.9 µM; in the test with NCI-H522 lung it was 70.1 µM; in the test with OVCAR-3 ovarian, 36.6 µM. The TGI was 62.7 µM with RPMI-8226 leukemia; greater than 100 µM in the test on SF-268 CNS; 76.8 µM with SNB-19 CNS; 67 µM in the test on SR leukemia; 66.4 µM in the test with TK-10 renal.

In the case of `COc1ccc(C)cc1Nc1nnc(-c2ccc(N)cc2)s1`, the TGI with A498 renal, with ACHN renal, in the test with CAKI-1 renal, in the test with NCI-H460 lung, with NCI-H522 lung and with OVCAR-3 ovarian was greater than 100 µM in each case. The TGI was 98.4 µM with RPMI-8226 leukemia, greater than 100 µM in the test on SF-268 CNS, greater than 100 µM with SNB-19 CNS and greater than 100 µM in the test on SR leukemia.

As for `COc1ccc2c(c1)CC[C@@H]1[C@@H]2CC[C@]2(C)C(=O)/C(=C/c3ccc(O)c(OC)c3)C[C@@H]12`, the TGI with A498 renal, with ACHN renal, with CAKI-1 renal, in the test with NCI-H460 lung, in the test on OVCAR-3 ovarian and with RPMI-8226 leukemia was greater than 100 µM in each case. Further, the TGI in the test on SNB-19 CNS, in the test with SR leukemia and in the test with TK-10 renal was greater than 100 µM throughout.

In the case of `Cn1c(=O)c2c(nc(NCCNc3nc4c(c(=O)n(C)c(=O)n4C)n3C)n2C)n(C)c1=O`, the TGI in the test with A498 renal, with ACHN renal, with CAKI-1 renal, in the test with NCI-H460 lung, in the test on NCI-H522 lung and in the test with OVCAR-3 ovarian was greater than 100 µM in each case. For the same molecule, the TGI with SF-268 CNS, in the test with SNB-19 CNS, in the test with SR leukemia and in the test with TK-10 renal was greater than 100 µM in each case.

With `O=C(COc1ccc(Cl)cc1Cl)N/N=C/C=C/c1ccc([N+](=O)[O-])o1`, the TGI with A498 renal was greater than 100 µM; with ACHN renal, greater than 100 µM; in the test with CAKI-1 renal it was greater than 100 µM; in the test on NCI-H460 lung, greater than 100 µM; in the test on NCI-H522 lung, 2.83 µM; in the test on OVCAR-3 ovarian, greater than 100 µM. For the same molecule, the TGI in the test on RPMI-8226 leukemia is 9.22 µM; in the test with SF-268 CNS it was greater than 100 µM; with SNB-19 CNS, 41.4 µM; in the test on TK-10 renal, 91.5 µM.

`O=S(O)c1cc(Cl)cc(Cl)c1OCc1ccccc1`: the TGI in the test with A498 renal, in the test with ACHN renal, in the test on NCI-H460 lung, in the test on NCI-H522 lung, in the test with OVCAR-3 ovarian and with SF-268 CNS was greater than 100 µM in each case. In addition, the TGI in the test with SNB-19 CNS, in the test on SR leukemia and in the test on TK-10 renal was greater than 100 µM each time.

For the molecule `COc1ccc(C2=NN(C(=O)c3cccnc3)C(O)(c3cc(F)c(Cl)cc3Cl)C2)cc1OC` (centres undefined), the TGI was 57.9 µM in the test on ACHN renal; greater than 100 µM in the test on CAKI-1 renal; 38.3 µM in the test with NCI-H460 lung; 34.9 µM with NCI-H522 lung; 27.6 µM in the test on OVCAR-3 ovarian; 73 µM in the test with RPMI-8226 leukemia. In addition, the TGI with SF-268 CNS is 39.8 µM; with SNB-19 CNS, greater than 100 µM; with SR leukemia it was 53.7 µM; in the test on TK-10 renal, greater than 100 µM.
